This passage reports IC50 results from patent US11655235B2, “Pyrrolidine and piperidine compounds” (YUHAN CORPORATION, priority 2019, dated 2023).

Type in all cases: biochemical
Experiment [1] deals with T1, recombinant human DPP9 (Homo sapiens, UniProt Q86TI2).
T1 construct: purchased R&D Systems
As to the kind of experiment: DPP9 inhibition, fluorogenic substrate H-Gly-Pro-AMC. The gist of the method: (§1)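 Inhibitors are titrated in an 8-point series into the enzyme's assay buffer (DMSO no more than 0.5%). Substrate cleavage at 25 °C is followed by fluorescence, excitation 380 nm and emission 460 nm. IC50 values come from a four-variable logistic model.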

Experiment [2] deals with T2, recombinant human DPP8 (Homo sapiens, UniProt Q6V1X1).
T2 construct: purchased PBS Bioscience
As to the kind of experiment: DPP8 inhibition, fluorogenic substrate Z-Ala-Pro-AMC. The method, then:
The compounds according to the present technology were evaluated in terms of the inhibitory effect on the activity of dipeptidyl peptidases including FAP by using a substrate producing fluorescent substances upon enzymatic decomposition. The test was conducted at 25° C. to get a final reaction volume of 100 μL in a 96 black well plate. […] Briefly, the test compounds were dissolved in dimethyl sulfoxide (DMSO) at a concentration of 20 mM and then subjected to serial dilution, thereby creating an 8 point curve. As for the control group, a 6 point curve created by serial dilution of Talabostat in the same buffer solution was used. Fluorescence intensity was measured using a microplate reader (Flexstation3, Molecular Devices) under the wavelength condition exciting at 380 nm and reading the emission at 460 nm. The inhibitory effect of the test compounds was measured as a decrease (%) in the signal rate as compared to the control group without any inhibitor. Data was fixed to a logistic model with four variables and IC50 value was calculated using GraphPad Prism program. As for recombinant human DPP4 (R&D Systems), 25 mM tris (pH 8.0) buffer as a buffer solution and H-Gly-Pro-AMC (Bachem) as a substrate were used. As for recombinant human DPP7 (R&D Systems), 25 mM MES (pH 6.0) buffer as a buffer solution and Lys-Pro-AMC (Bachem) as a substrate were used. As for recombinant human DPP8 (PBS Bioscience), as a buffer solution, a 10 mM tris (pH 7.4) buffer comprising 10 mM of magnesium chloride and 0.05% of Tween 20, and Z-Ala-Pro-AMC (BPS Bioscience) as a substrate were used. As for recombinant human DPP9 (R&D Systems), a 25 mM tris (pH 8.0) buffer as a buffer solution and H-Gly-Pro-AMC (Bachem) as a substrate were used. As for recombinant human PREP (R&D System), as a buffer solution, a 25 mM tris (pH 7.5) buffer comprising 250 mM sodium chloride and 2.5 mM DTT (Dithiolthreitol), and Z-Gly-Pro-AMC (Bachem) as a substrate were used. The evaluation was made by using 10 ng of DPP4, PDD7, and PREP, 20 ng of DPP8, and 50 ng of DPP9 based on the final reaction. In the evaluation of DPP4, the test compounds were subjected to serial dilution in a buffer under the condition containing up to 0.1% of DMSO. In the evaluation of DPP7, DPP8, DPP9, and PREP, the test compounds were subjected to serial dilution in each buffer under the condition containing up to 0.5% of DMSO.

The target of experiment [3] is T3, Recombinant human FAP (Homo sapiens, UniProt Q12884).
T3 construct: purchased R&D systems
T3 sequence (Q12884 1-760): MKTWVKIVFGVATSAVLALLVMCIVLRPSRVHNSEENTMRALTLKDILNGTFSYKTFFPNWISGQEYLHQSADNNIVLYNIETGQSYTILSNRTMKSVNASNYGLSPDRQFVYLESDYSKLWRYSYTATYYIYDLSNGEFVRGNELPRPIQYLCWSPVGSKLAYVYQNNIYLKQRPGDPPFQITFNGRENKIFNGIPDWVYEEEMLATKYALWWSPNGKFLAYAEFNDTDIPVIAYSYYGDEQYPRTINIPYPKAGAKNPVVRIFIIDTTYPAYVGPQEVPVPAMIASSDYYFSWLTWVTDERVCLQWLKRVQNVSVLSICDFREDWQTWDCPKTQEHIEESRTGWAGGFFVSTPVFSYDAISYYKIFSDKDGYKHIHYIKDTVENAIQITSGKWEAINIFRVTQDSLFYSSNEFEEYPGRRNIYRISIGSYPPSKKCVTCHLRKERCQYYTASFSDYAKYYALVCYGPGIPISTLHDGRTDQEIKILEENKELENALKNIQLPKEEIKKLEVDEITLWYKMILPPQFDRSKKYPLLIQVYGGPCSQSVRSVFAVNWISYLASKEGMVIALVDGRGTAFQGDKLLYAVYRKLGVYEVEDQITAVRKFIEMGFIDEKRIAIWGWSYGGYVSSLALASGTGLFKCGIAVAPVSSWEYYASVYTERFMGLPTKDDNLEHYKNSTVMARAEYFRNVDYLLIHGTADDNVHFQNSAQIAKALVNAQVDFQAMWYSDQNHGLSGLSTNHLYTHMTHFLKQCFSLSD
Nature of the experiment: FAP inhibition, fluorogenic substrate Z-Gly-Pro-AMC. The gist of the method:
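Eight-point compound dilutions (≤0.1% DMSO) were incubated at 25° C with 10 ng recombinant human FAP in Tris pH 7.5/1 M NaCl/BSA buffer and Z-Gly-Pro-AMC. Inhibition was taken as % drop in fluorescence rate (380/460 nm) against uninhibited control; IC50 came from a four-parameter logistic fit.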

Experiment [4] has as its target T4, recombinant human DPP7 (Homo sapiens, UniProt Q9UHL4).
T4 construct: purchased R&D Systems
Nature of the experiment: DPP7 inhibition, fluorogenic substrate Lys-Pro-AMC. The gist of the method: as §1

Experiment [5] deals with T5, recombinant human PREP (Homo sapiens, UniProt P48147).
T5 construct: purchased R&D System
T5 sequence (P48147 1-710): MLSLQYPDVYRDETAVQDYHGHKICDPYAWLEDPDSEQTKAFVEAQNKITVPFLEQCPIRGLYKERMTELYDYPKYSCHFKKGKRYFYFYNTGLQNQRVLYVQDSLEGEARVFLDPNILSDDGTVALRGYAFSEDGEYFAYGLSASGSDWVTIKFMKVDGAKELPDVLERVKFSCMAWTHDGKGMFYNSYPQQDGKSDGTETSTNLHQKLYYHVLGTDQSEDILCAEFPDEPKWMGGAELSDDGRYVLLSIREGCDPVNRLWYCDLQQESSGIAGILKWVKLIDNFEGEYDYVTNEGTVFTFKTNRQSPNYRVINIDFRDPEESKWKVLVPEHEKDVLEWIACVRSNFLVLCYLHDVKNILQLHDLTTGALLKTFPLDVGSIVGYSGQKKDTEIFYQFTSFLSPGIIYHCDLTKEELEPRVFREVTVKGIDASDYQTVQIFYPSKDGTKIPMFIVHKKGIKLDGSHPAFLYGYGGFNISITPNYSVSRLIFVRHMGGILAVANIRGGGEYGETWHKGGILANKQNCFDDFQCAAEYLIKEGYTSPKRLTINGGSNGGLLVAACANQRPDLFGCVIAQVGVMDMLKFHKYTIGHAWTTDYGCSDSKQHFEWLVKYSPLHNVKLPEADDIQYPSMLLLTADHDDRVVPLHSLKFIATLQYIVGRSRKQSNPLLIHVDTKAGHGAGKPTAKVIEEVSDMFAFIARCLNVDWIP
As to the kind of experiment: PREP inhibition, fluorogenic substrate Z-Gly-Pro-AMC. Particulars: Inhibitory Activity (IC50, nM) PREP. A digest of the protocol: as §1

For experiment [6], the target named is DPP4 (Homo sapiens, UniProt P27487). As to the kind of experiment: DPP4 inhibition, fluorogenic substrate H-Gly-Pro-AMC. More on the design: purchased R&D Systems. Particulars: recombinant human DPP4.
The target in experiment [7] is T3, Recombinant human FAP. As to the kind of experiment: FAP FRET assay, FGF21-sequence FRET peptide substrate. The note with it: FRET peptide with human FGF21 sequence, 6 μM, 37° C. The gist of the method:
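FRET peptide bearing human FGF21 sequence (6 μM final) cleaved by 10 ng recombinant human FAP at 37° C in HEPES pH 7.2 buffer with NaCl, BSA and EDTA, DMSO up to 0.1%. Signal-rate decrease versus uninhibited control fitted to a four-variable logistic model for IC50.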

The mark [8] stands for this setting: 25° C., H-Gly-Pro-AMC substrate.
Where [9] appears, read: 25° C., Z-Ala-Pro-AMC substrate.
[10] abbreviates: 25° C., Z-Gly-Pro-AMC substrate.
Where [11] appears, read: recombinant human FAP, substrate Z-Gly-Pro-AMC.

Where two headings read alike, the source gives them in different places. A value given as a limit tells only on which side of the number the result lay.

T2 sequence (Q6V1X1 whole entry): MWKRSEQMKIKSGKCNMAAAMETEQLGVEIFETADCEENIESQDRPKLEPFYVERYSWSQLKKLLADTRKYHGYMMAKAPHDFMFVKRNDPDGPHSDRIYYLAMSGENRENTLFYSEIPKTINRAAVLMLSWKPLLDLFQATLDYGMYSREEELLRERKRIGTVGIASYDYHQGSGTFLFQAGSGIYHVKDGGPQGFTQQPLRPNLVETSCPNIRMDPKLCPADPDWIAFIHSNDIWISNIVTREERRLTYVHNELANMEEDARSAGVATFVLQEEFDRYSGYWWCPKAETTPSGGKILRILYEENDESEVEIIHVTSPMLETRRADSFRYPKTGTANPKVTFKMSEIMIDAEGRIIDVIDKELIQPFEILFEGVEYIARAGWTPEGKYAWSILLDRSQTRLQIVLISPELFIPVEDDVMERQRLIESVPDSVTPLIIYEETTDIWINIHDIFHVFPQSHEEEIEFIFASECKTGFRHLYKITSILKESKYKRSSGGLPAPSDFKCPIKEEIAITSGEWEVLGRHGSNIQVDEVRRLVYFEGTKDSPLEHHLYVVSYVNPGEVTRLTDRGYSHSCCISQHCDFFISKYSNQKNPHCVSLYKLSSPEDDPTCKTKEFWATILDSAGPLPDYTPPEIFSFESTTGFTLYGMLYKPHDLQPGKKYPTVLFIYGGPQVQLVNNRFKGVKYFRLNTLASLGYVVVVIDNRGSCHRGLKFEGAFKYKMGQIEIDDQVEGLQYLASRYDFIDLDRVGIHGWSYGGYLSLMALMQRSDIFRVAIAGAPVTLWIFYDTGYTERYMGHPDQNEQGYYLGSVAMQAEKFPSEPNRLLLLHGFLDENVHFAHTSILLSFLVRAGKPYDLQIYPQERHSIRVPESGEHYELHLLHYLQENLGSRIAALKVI
Sequence of DPP4 (P27487 whole entry): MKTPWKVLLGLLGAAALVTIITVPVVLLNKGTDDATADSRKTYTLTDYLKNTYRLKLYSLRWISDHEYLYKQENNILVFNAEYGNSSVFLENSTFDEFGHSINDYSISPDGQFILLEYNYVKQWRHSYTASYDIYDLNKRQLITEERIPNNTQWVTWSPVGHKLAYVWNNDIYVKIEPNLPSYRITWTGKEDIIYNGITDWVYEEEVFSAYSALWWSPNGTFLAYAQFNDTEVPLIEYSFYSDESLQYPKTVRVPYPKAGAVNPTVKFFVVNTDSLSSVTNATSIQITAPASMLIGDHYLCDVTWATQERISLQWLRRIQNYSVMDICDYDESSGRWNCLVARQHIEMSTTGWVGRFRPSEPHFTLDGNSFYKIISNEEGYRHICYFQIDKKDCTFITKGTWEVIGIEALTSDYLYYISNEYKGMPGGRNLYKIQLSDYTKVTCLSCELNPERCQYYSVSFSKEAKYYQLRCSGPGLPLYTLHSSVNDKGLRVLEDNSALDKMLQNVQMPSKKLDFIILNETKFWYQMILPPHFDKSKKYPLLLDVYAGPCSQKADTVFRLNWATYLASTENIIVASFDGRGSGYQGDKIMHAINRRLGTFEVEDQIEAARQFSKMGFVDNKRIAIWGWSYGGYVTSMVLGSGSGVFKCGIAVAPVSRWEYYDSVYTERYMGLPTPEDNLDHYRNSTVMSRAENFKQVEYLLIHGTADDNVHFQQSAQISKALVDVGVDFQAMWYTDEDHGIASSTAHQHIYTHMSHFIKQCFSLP
T1 sequence (Q86TI2 whole entry): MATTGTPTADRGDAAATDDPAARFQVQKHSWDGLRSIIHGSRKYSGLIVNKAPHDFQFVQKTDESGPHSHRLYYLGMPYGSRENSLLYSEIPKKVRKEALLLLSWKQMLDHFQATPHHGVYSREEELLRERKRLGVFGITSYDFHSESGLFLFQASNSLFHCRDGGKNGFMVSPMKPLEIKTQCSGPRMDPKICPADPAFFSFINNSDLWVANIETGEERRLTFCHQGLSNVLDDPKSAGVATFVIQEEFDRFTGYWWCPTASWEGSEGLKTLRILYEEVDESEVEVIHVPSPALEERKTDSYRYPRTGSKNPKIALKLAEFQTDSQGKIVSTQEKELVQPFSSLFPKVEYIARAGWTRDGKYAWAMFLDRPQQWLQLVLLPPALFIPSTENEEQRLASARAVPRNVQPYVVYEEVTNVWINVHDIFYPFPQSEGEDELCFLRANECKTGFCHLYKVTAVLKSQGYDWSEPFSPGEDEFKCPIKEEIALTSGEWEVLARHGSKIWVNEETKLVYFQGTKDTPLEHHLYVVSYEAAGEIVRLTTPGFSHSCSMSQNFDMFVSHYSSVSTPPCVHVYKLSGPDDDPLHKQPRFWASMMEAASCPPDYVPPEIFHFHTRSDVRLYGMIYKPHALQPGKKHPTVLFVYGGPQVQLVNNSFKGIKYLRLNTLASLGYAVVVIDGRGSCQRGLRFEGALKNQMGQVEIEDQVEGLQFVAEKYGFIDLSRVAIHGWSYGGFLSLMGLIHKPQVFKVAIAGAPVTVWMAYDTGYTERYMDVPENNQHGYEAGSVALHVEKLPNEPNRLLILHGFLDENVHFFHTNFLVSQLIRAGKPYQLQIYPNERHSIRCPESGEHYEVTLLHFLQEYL

For the compound `CN(c1cnc2ccccc2c1)[C@H]1CCN(CC(=O)N2CCC[C@H]2C#N)C1` [Example 142, (2S)-1-[2-[(3S)-3-[methyl(3-quinolyl)amino]pyrrolidin-1-yl]acetyl]pyrrolidine-2-carbonitrile], the IC50 in experiment [1] (setting [8]) is 71 µM; in experiment [2] (setting [9]) it was at least 100 µM; in experiment [3] (setting [10]) it was 2.6 nM; in experiment [4] it was 4.99 µM; in experiment [5] (setting [10]) it was 4510 nM.

As to `CN(c1cccc2cnccc12)[C@H]1CCN(CC(=O)N2CCC[C@H]2C#N)C1` [Example 148, (2S)-1-[2-[(3S)-3-[5-isoquinolyl(methyl)amino]pyrrolidin-1-yl]acetyl]pyrrolidine-2-carbonitrile], the IC50 in experiment [1] (setting [8]) came out at 29.3 µM; in experiment [2] (setting [9]), 86.6 µM; in experiment [3] (setting [10]), 7.3 nM; in experiment [4] it was 10.8 µM; in experiment [5] (setting [10]), 3810 nM.

As for `CN(c1cnc2ccccc2c1)[C@@H]1CCN(CC(=O)N2CCC[C@H]2C#N)C1` [Example 138, (2S)-1-[2-[(3R)-3-[methyl(3-quinolyl)amino]pyrrolidin-1-yl]acetyl]pyrrolidine-2-carbonitrile], the IC50 in experiment [1] (setting [8]) is at least 100 µM; in experiment [2] (setting [9]), at least 100 µM; in experiment [3] (setting [10]) it was 24.8 nM; in experiment [4], 3.7 µM; in experiment [5] (setting [10]), 7970 nM.

Consider `N#C[C@@H]1C[C@H](F)CN1C(=O)CN1CCC(Nc2cncc3ccncc23)CC1` [Example 360, (2S,4S)-4-fluoro-1-[2-[4-(2,6-naphthyridin-4-ylamino)-1-piperidyl]acetyl]pyrrolidine-2-carbonitrile], for which the concentration for half-maximal inhibition (IC50) in experiment [1] (recombinant human DPP9) is 7.35 µM; in experiment [2] (recombinant human DPP8), at least 100 µM; in experiment [3] (setting [11]), 1.9 nM; in experiment [4] (recombinant human DPP7), 1.34 µM; in experiment [5] (recombinant human PREP) it was 16400 nM.

For `N#C[C@@H]1CCCN1C(=O)CN1CC[C@@H](Nc2ccc3ncccc3c2)C1` [Example 162, (2S)-1-[2-[(3R)-3-(6-quinolylamino)pyrrolidin-1-yl]acetyl]pyrrolidine-2-carbonitrile], the half-inhibitory concentration (IC50) was 14.9 µM in experiment [1] (recombinant human DPP9); at least 100 µM in experiment [2] (recombinant human DPP8); 5.2 nM in experiment [3] (setting [11]); 2.34 µM in experiment [4] (recombinant human DPP7); 2610 nM in experiment [5] (recombinant human PREP).

Consider `N#C[C@@H]1C[C@H](F)CN1C(=O)CN1CC[C@@H](Nc2cccc3ncccc23)C1` [Example 166, (2S,4S)-4-fluoro-1-[2-[(3R)-3-(5-quinolylamino)pyrrolidin-1-yl]acetyl]pyrrolidine-2-carbonitrile], for which the concentration for half-maximal inhibition (IC50) in experiment [1] (recombinant human DPP9) worked out at 1.83 µM; in experiment [2] (recombinant human DPP8), 6.16 µM; in experiment [3] (setting [11]), 2.1 nM; in experiment [4] (recombinant human DPP7), 0.958 µM; in experiment [5] (recombinant human PREP), 769 nM.

`N#C[C@@H]1CCCN1C(=O)CN1CC[C@@H](Nc2cccc3ncccc23)C1` [Example 161, (S)-1-(2-((R)-3-(quinolin-5-ylamino)pyrrolidin-1-yl)acetyl)pyrrolidine-2-carbonitrile]: the IC50 in experiment [1] (recombinant human DPP9) worked out at 25.4 µM; in experiment [2] (recombinant human DPP8), 41.5 µM; in experiment [3] (setting [11]), 1.4 nM; in experiment [4] (recombinant human DPP7), 5.45 µM; in experiment [5] (recombinant human PREP) it was 4250 nM.

Consider `COc1ccc2nc(C)cc(OC3CCN(CC(=O)N4C[C@@H](F)C[C@H]4C#N)CC3)c2c1` [Example 424, (2S,4S)-4-fluoro-1-[2-[4-[(6-methoxy-2-methyl-4-quinolyl)oxy]-1-piperidyl]acetyl]pyrrolidine-2-carbonitrile], for which the 50% inhibitory concentration (IC50) in experiment [1] (recombinant human DPP9) is 48.9 µM; in experiment [2] (recombinant human DPP8), 13.1 µM; in experiment [6], above 10000 nM; in experiment [3] (setting [11]) it was 2.3 nM; in experiment [4] (recombinant human DPP7), 3.89 µM.

`Cc1cnc2ccc(N[C@@H]3CCN(CC(=O)N4C[C@@H](F)C[C@H]4C#N)C3)cc2c1` [Example 211, (2S,4S)-4-fluoro-1-[2-[(3R)-3-[(3-methyl-6-quinolyl)amino]pyrrolidin-1-yl]acetyl]pyrrolidine-2-carbonitrile]: the IC50 in experiment [1] (recombinant human DPP9) came out at 0.657 µM; in experiment [7] it was 5.2 nM; in experiment [6], 1800 nM; in experiment [4] (recombinant human DPP7) it was 0.369 µM; in experiment [5] (recombinant human PREP), 2740 nM.

Regarding `Cc1cnc2cccc(N[C@@H]3CCN(CC(=O)N4C[C@@H](F)C[C@H]4C#N)C3)c2c1` [Example 179, (2S,4S)-4-fluoro-1-[2-[(3R)-3-[(3-methyl-5-quinolyl)amino]pyrrolidin-1-yl]acetyl]pyrrolidine-2-carbonitrile], the IC50 in experiment [1] (recombinant human DPP9) came out at 2.56 µM; in experiment [7], 3.6 nM; in experiment [6] it was 1940 nM; in experiment [4] (recombinant human DPP7) it was 0.401 µM; in experiment [5] (recombinant human PREP), 2930 nM.

Broadly, the IC50 is the concentration that inhibits the measured activity by half.
